In patent publication US8034810B2, “Arylsulfonamido-substituted hydroxamic acid derivatives” (Novartis AG, priority 1999, dated 2011):

System: EGFP transfected HT1080 cells
Assay: Metastasis model with EGFP transfected HT1080 cells, lung fluorescence in nude mice
Format: in vivo
Conditions: tumor cells i.v., p.o. 60 mg/kg twice a day, lungs on day 17
Method: EGFP transfected HT1080: Nude mice were injected in the tail vein a suspension of tumor cells [2×10^6 cells/0.1 ml of PBS (phosphate buffered saline)]. Animals were dosed with compounds p.o. at −1 hr and +5 hrs relative to the time of the cell injection at the first day (day 0). After that the animals were dosed twice a day, firstly at 9-10:30 a.m. and secondly at 5:30-7:00 p.m. Compounds were administered as a suspension in 1% carboxymethyl cellulose (Wako, Japan) at a dose of 60 mg/kg twice a day. The vehicle alone was administered to the control group. On day 17, the lungs were removed from mice after sacrificing the animals. The removed lung tissues were divided into pieces of approximately 2-3 mm in diameter and then ca. 100 mg of tissues were suspended in 0.2 ml PBS in the microcentrifuge tubes followed by gentle homogenization and centrifugation. […] The fluorescence intensity was determined by using fluorescence plate reader (Cytoflour II) at the excitation and emission wavelength of 485 and 530 nm, respectively. The obtained fluorescence was normalized per lung using the wet lung weight. In this test a decrease in the fluorescence of 74% compared to the vehicle alone was determined for the compound of Example 68.

COc1ccc(CN(CC(=O)NO)S(=O)(=O)c2ccc(OCCCCl)cc2)cc1 [Example 68, 2-{[4-(3-chloro-propoxy)-benzenesulfonyl]-(4-methoxy-benzyl)amino}-N-hydroxy-acetamide]
decrease in the fluorescence compared to the vehicle alone: 74%
